Data published in PubChem BioAssay AID1259407 (Chemical Carcinogenesis Research Information System (CCRIS), 2018).
Active and inactive are the calls of the source. No rule for the calls is given here.

Tested on: CCRIS mutagenicity, Ames/micronucleus/aberration tests
Assay: CCRIS mutagenicity studies
Conditions: Test System: AMES SALMONELLA TYPHIMURIUM, Method: PREINCUBATION

SMILES	mutagenic call (Strain/Indicator: TA97, Metabolic Activation: HAMSTER, LIVER, S-9, AROCLOR 1254 (10 OR 30%))	mutagenic call (Strain/Indicator: TA97, Metabolic Activation: NONE)	mutagenic call (Strain/Indicator: TA97, Metabolic Activation: RAT, LIVER, S-9, AROCLOR 1254 (10 OR 30%))	mutagenic call (Strain/Indicator: TA98, Metabolic Activation: HAMSTER, LIVER, S-9, AROCLOR 1254 (10 OR 30%))	mutagenic call (Strain/Indicator: TA98, Metabolic Activation: NONE)	mutagenic call (Strain/Indicator: TA98, Metabolic Activation: RAT, LIVER, S-9, AROCLOR 1254 (10 OR 30%))	mutagenic call (Strain/Indicator: TA100, Metabolic Activation: HAMSTER, LIVER, S-9, AROCLOR 1254 (10 OR 30%))	mutagenic call (Strain/Indicator: TA100, Metabolic Activation: NONE)	mutagenic call (Strain/Indicator: TA100, Metabolic Activation: RAT, LIVER, S-9, AROCLOR 1254 (10 OR 30%))	mutagenic call (Strain/Indicator: TA1535, Metabolic Activation: HAMSTER, LIVER, S-9, AROCLOR 1254 (10 OR 30%))	mutagenic call (Strain/Indicator: TA1535, Metabolic Activation: NONE)	mutagenic call (Strain/Indicator: TA1535, Metabolic Activation: RAT, LIVER, S-9, AROCLOR 1254 (10 OR 30%))	mutagenic call (Strain/Indicator: TA98, Metabolic Activation: RAT, LIVER, S-9, PHENOBARBITAL AND BETA-NAPHTHOFLAVONE)	mutagenic call (Strain/Indicator: TA100, Metabolic Activation: RAT, LIVER, S-9, PHENOBARBITAL AND BETA-NAPHTHOFLAVONE)
COc1ccc(CCC(=O)c2c(O)cc(O[C@@H]3O[C@H](CO)[C@@H](O)[C@H](O)[C@H]3O[C@@H]3O[C@@H](C)[C@H](O)[C@@H](O)[C@H]3O)cc2O)cc1O	inactive; negative	inactive; negative	inactive; negative	inactive; negative	inactive; negative	inactive; negative	inactive; negative	inactive; negative	inactive; negative	inactive; negative	inactive; negative	inactive; negative	–	–
COc1cc2c(cc1OC)-c1c3c(cc4c1[C@H](C2)N(C)CC4)OCO3	–	–	–	–	–	–	–	–	–	–	–	–	active; positive	active; positive
